According to ChEMBL document CHEMBL1765060, “Synthesis, characterization, and biological evaluation of novel diclofenac prodrugs” (J Med Chem, 2011):

Key:
[1] = buffer, pH 9
[2] = Metabolic stability in rat liver microsomes assessed as compound remaining after 60 mins by HPLC analysis; format: ADME, Microsome; conditions: read-out: Stability
[3] = buffer, pH 3
[4] = Metabolic stability in rat liver microsomes assessed as compound remaining after 30 mins by HPLC analysis; format: ADME, Microsome; conditions: read-out: Stability
[5] = Metabolic stability in rat plasma assessed as compound remaining after 120 mins by HPLC analysis; format: ADME, cell-free; conditions: read-out: Stability
Rattus norvegicus [6] = experiment: Antiinflammatory activity in Wistar rat assessed as inhibition of carrageenan-induced paw edema at 100 mg/kg, po administered 1 hr before carrageenan challenge measured after 180 mins; format: functional; design: scale not given: the % may be the effect or the level left
[7] = buffer, pH 1
[8] = buffer, pH 7.4
physchem [9] = conditions: octanol/0.2 M phosphate buffer, pH 7.4
Rattus norvegicus [10] = experiment: Gastrointestinal toxicity in Wistar rat assessed as ulcer area of <1 mm diameter at 100 mg/kg, po; format: organism-based; design: dose 100 mg/kg, route oral; conditions: in vivo
physchem [11] = conditions: octanol/0.1 M citric acid buffer, pH 3
Rattus norvegicus [12] = experiment: Gastrointestinal toxicity in Wistar rat assessed as ulcer index at 100 mg/kg, po; format: organism-based; design: dose 100 mg/kg, route oral; conditions: in vivo
[13] = Metabolic stability in rat plasma assessed as compound remaining after 60 mins by HPLC analysis; format: ADME, cell-free; conditions: read-out: Stability
[14] = Aqueous solubility of the compound in acetate buffer at pH 5.5 by HPLC analysis
Rattus norvegicus [15] = experiment: Gastrointestinal toxicity in Wistar rat assessed as ulcer area of 1-3 mm diameter at 100 mg/kg, po; format: organism-based; design: dose 100 mg/kg, route oral; conditions: in vivo
Rattus norvegicus [16] = experiment: Gastrointestinal toxicity in Wistar rat assessed as ulcer area of >3 mm diameter at 100 mg/kg, po; format: organism-based; design: dose 100 mg/kg, route oral; conditions: in vivo
Rattus norvegicus [17] = experiment: Gastrointestinal toxicity in Wistar rat assessed as ulcer index at 50 mg/kg, po; format: organism-based; design: dose 50 mg/kg, route oral; conditions: in vivo
Rattus norvegicus [18] = experiment: Gastrointestinal toxicity in Wistar rat assessed as ulcer area of >3 mm diameter at 50 mg/kg, po; format: organism-based; design: dose 50 mg/kg, route oral; conditions: in vivo
Rattus norvegicus [19] = experiment: Gastrointestinal toxicity in Wistar rat assessed as ulcer area of 1-3 mm diameter at 50 mg/kg, po; format: organism-based; design: dose 50 mg/kg, route oral; conditions: in vivo
Rattus norvegicus [20] = experiment: Gastrointestinal toxicity in Wistar rat assessed as ulcer area of <1 mm diameter at 50 mg/kg, po; format: organism-based; design: dose 50 mg/kg, route oral; conditions: in vivo
Rattus norvegicus [21] = experiment: Antiinflammatory activity in Wistar rat assessed as inhibition of carrageenan-induced paw edema at 50 mg/kg, po administered 1 hr before carrageenan challenge measured after 180 mins; format: functional; design: scale not given: the % may be the effect or the level left

Compound | solubility [1] | remaining at 1 h [2] | solubility [3] | remaining at 0.5 h [4] | remaining at 2 h [5] | Activity (Rattus norvegicus [6]) | solubility [7] | solubility [8] | logD (physchem [9]) | Activity (Rattus norvegicus [10]) | logD (physchem [11]) | UI (Rattus norvegicus [12]) | remaining at 1 h [13] | solubility [14] | other results
CC(C)(C)C(=O)OCOC(=O)Cc1ccccc1Nc1c(Cl)cccc1Cl | BLD | 0% | BLD | 2.5% | 0% | 56.33% | BLD | BLD | 3.72 | 100% | 4.08 | 6 | 0% | BLD | –
CC(C)OC(=O)OCOC(=O)Cc1ccccc1Nc1c(Cl)cccc1Cl | BLD | 1.2% | BLD | 2.2% | 0% | 40.88% | BLD | BLD | 2.46 | 91.4% | 3.9 | 40 | 0% | BLD | Activity (Rattus norvegicus [15]): 2.86%; Activity (Rattus norvegicus [16]): 5.71%
CC(=O)OCCOC(=O)Cc1ccccc1Nc1c(Cl)cccc1Cl | BLD | 0% | BLD | 0% | 0% | 47.51% | BLD | BLD | 4.57 | 100% | 4.33 | 8 | 0% | BLD | –
O=C([O-])Cc1ccccc1Nc1c(Cl)cccc1Cl.[Na+] [DICLOFENAC SODIUM] | – | 88.8% | – | 84.4% | 69.4% | – | – | – | – | – | – | – | 86.2% | – | UI (Rattus norvegicus [17]): 63; Activity (Rattus norvegicus [18]): 6%; Activity (Rattus norvegicus [19]): 14%; Activity (Rattus norvegicus [20]): 80%; Activity (Rattus norvegicus [21]): 49.17%
